In patent US8501908B2, “Immunogenic peptides” (priority 2008, dated 2013):

How the values were obtained:
Assay type in all cases: cell-based, human
[1] = test system: PBMCs from DLBCL patients; assay: γ-IFN release ELISPOT, PBMCs of DLBCL patients after short-term culture with peptides; set-up: γ-IFN response to peptides: unit not given here; conditions: for order of immunogenicity for eliciting CTLs / order of immunogenicity for eliciting TH cell responses: from γ-IFN release assay; for order of immunogenicity for eliciting CTLs: order PASD1(1), PASD1(2), PASD1(5), PASD1(3), PASD1(4); for TH γ-IFN response to peptides at time of diagnosis and after one year: DLBCL patients (FIG. 5), short term culture, p<0.05; for γ-IFN response to peptides: triplicate ELISPOT; for immunogenicity among patients studied: TH γ-IFN response, DLBCL patients; for γ-IFN response to the PASD1(1) CTL peptide elicited by culture with the peptide: cells cultured 8-10 days with PASD1(6) or PASD1(7), Table 4; for order of immunogenicity for eliciting TH cell responses: order PASD1(6), PASD1(7), PASD1(10), PASD1(9), PASD1(8)
[2] = test system: OCI-Ly3 (DLBCL) cell line; assay: 51Cr release cytolytic assay of peptide-specific CTL/TH cell lines; conditions: for lysis by CTL lines raised against the peptide: PASD1-positive HLA-A*0201-negative OCI-Ly3, 4 h 51Cr release; for lysis by TH cell lines specific for the peptide: PASD1-positive OCI-Ly3, 18 h 51Cr release
Method: (§1) A conventional ^51Cr-labelling release assay was used to investigate the ability of CTL and TH cell lines generated from DLBCL patients to lyse PASD1-positive tumour target cells. The target cell lines, consisting of the OCI-Ly3, SUDHL-6, KM-H2 and Thiel, were radiolabelled with 100 μCi ^51Cr for 90 minutes. […] The incubation period of the TH with the target cells was increased to 18 hours. Maximum ^51Cr release was determined following the addition of 10% Triton-X to the radiolabelled target cells and spontaneous release was assessed by adding RPMI1640/FCS to the target cells. The supernatant was harvested and counted in a gamma-counter (Beckmann, Heidelberg, Germany).

[3] = test system: SUDHL-6 (DLBCL) cell line; assay: as above; conditions: PASD1-negative SUDHL-6; for lysis by CTL lines raised against the peptide: 4 h 51Cr release; for lysis by TH cell lines specific for the peptide: 18 h 51Cr release
Method: as §1

[4] = test system: Thiel (myeloma) cell line; assay: as above; conditions: for lysis by CTL lines raised against the peptide: HLA-A*0201-positive PASD1-positive Thiel, 4 h 51Cr release, four patients; for lysis by TH cell lines specific for the peptide: PASD1-positive Thiel, 18 h 51Cr release
Method: as §1

[5] = test system: KM-H2 (HL) cell line; assay: 51Cr release cytolytic assay of peptide-specific CTL cell lines; conditions: HLA-A*0201-negative PASD1-positive KM-H2; 4 h 51Cr release
Method: as §1

[6] = test system: PBMCs from healthy donors; assay: γ-IFN release ELISPOT, PBMCs of healthy donors after short-term culture with peptides; conditions: triplicate ELISPOT, ± SD
[7] = PBMCs from a DLBCL patient stimulated in culture with PASD1(6) or PASD1(7) peptides, +/− SD
[8] = Patient 1, De novo DLBCL, DRB1-0102, group Significant response, ± SD
[9] = Patient 2, De novo DLBCL, DRB1-0101, group Significant response, ± SD
[10] = Patient 3, De novo DLBCL, DRB1-0301, group Significant response, ± SD
[11] = Patient 4, De novo DLBCL, DRB1-0102, group Significant response, ± SD
[12] = Patient 8, De novo DLBCL, DRB1-1501, group Significant response, ± SD
[13] = Patient 9, De novo DLBCL, DRB1-0301, group Significant response, ± SD
[14] = Patient 10, De novo DLBCL, DRB1-0101, group No significant response, ± SD
[15] = Patient 12, De novo DLBCL, DRB1-0401, group Significant response, ± SD
[16] = Patient 15, De novo DLBCL, DRB1-1301, group No significant response, ± SD
[17] = Patient 17, De novo DLBCL, DRB1-0301, group No significant response, ± SD
[18] = Patient 18, De novo DLBCL, DRB1-0401, group No significant response, ± SD
[19] = Patient 19, De novo DLBCL, DRB1-1104, group No significant response, ± SD
[20] = Patient 20, De novo DLBCL, DRB1-1303, group No significant response, ± SD
[21] = Patient 21, De novo DLBCL, DRB1-0301, group No significant response, ± SD
[22] = Patient 24, De novo DLBCL, DRB1-1301, group Significant response, ± SD
[23] = Patient 28, Trans DLBCL, DRB1-0701, group No significant response, ± SD
[24] = Patient 37, Trans DLBCL, DRB1-0103, group Significant response, ± SD
[25] = Patient 48, T-cell rich DLBCL, DRB1-0301, group Significant response, ± SD
[26] = Patient 61, De novo DLBCL, DRB1-0401, group No significant response, ± SD

Sequence	order of immunogenicity for eliciting CTLs [1]	lysis by CTL lines raised against the peptide [2]	lysis by CTL lines raised against the peptide [3]	lysis by CTL lines raised against the peptide [4]	lysis by CTL lines raised against the peptide [5]	TH γ-IFN response to peptides at time of diagnosis and after one year [1]	γ-IFN response to peptides [1, 7]	γ-IFN response to peptides [1, 8]	γ-IFN response to peptides [1, 9]	γ-IFN response to peptides [1, 10]	γ-IFN response to peptides [1, 11]	γ-IFN response to peptides [1, 12]	γ-IFN response to peptides [1, 13]	γ-IFN response to peptides [1, 14]	γ-IFN response to peptides [1, 15]	γ-IFN response to peptides [1, 16]	γ-IFN response to peptides [1, 17]	γ-IFN response to peptides [1, 18]	γ-IFN response to peptides [1, 19]	γ-IFN response to peptides [1, 20]	also measured
ELSDSLGPV (listed as Homo sapiens) [PASD1(5)]	more immunogenic	not	not	dose dependent lysis	not																
DGFMITLSTDGVIICVAENI (listed as Homo sapiens) [PASD1(7)]						significant	26 +/− 2	28 ± 4	46 ± 8	26 ± 4	44 ± 4	18 ± 2	18 ± 2	26 ± 2	36 ± 4	32 ± 2	18 ± 4	26 ± 2	26 ± 2	14 ± 2	γ-IFN response to peptides [1, 21]: 10 ± 2; γ-IFN response to peptides [1, 22]: 38 ± 4; γ-IFN response to peptides [1, 23]: 22 ± 6; γ-IFN response to peptides [1, 24]: 32 ± 6; γ-IFN response to peptides [1, 25]: 56 ± 6; γ-IFN response to peptides [1, 26]: 10 ± 4; immunogenicity among patients studied [1]: immunogenic in the majority of patients; γ-IFN response to the PASD1(1) CTL peptide elicited by culture with the peptide [1]: comparable; order of immunogenicity for eliciting TH cell responses [1]: most immunogenic; γ-IFN response to peptides ([6]; Healthy donor HD 1, DRB1-0102): 20 ± 2; γ-IFN response to peptides ([6]; Healthy donor HD 2, DRB1-0401): 8 ± 2; γ-IFN response to peptides ([6]; Healthy donor HD 3, DRB1-0401): 10 ± 2; γ-IFN response to peptides ([6]; Healthy donor HD 4, DRB1-0301): 20 ± 2; γ-IFN response to peptides ([6]; Healthy donor HD 5, DRB1-0301): 22 ± 2; lysis by TH cell lines specific for the peptide [2]: Significant dose dependent lysis; lysis by TH cell lines specific for the peptide [3]: no significant lysis; lysis by TH cell lines specific for the peptide [4]: Significant dose dependent lysis
YLVGNVCIL (listed as Homo sapiens) [PASD1(2)]	more immunogenic	not	not	dose dependent lysis	not																
QLLDGFMITL (listed as Homo sapiens) [PASD1(1)]	most immunogenic	not	not	dose dependent lysis	not		30 +/− 4														cytolytic effect of peptide-stimulated cells ([4]; effector:target ratio of 5:1, all four patients): significant
DYFNQVTLQLLDGFMITLST (listed as Homo sapiens) [PASD1(6)]						significant	32 +/− 2	52 ± 6	32 ± 4	34 ± 4	58 ± 8	36 ± 6	22 ± 6	30 ± 8	44 ± 6	28 ± 4	20 ± 2	14 ± 2	22 ± 2	10 ± 2	γ-IFN response to peptides [1, 21]: 18 ± 2; γ-IFN response to peptides [1, 22]: 22 ± 4; γ-IFN response to peptides [1, 23]: 28 ± 4; γ-IFN response to peptides [1, 24]: 38 ± 4; γ-IFN response to peptides [1, 25]: 48 ± 4; γ-IFN response to peptides [1, 26]: 22 ± 2; immunogenicity among patients studied [1]: immunogenic in the majority of patients; γ-IFN response to the PASD1(1) CTL peptide elicited by culture with the peptide [1]: comparable; order of immunogenicity for eliciting TH cell responses [1]: most immunogenic; γ-IFN response to peptides ([6]; Healthy donor HD 1, DRB1-0102): 14 ± 2; γ-IFN response to peptides ([6]; Healthy donor HD 2, DRB1-0401): 10 ± 2; γ-IFN response to peptides ([6]; Healthy donor HD 3, DRB1-0401): 5 ± 2; γ-IFN response to peptides ([6]; Healthy donor HD 4, DRB1-0301): 14 ± 2; γ-IFN response to peptides ([6]; Healthy donor HD 5, DRB1-0301): 24 ± 2; lysis by TH cell lines specific for the peptide [2]: Significant dose dependent lysis; lysis by TH cell lines specific for the peptide [3]: no significant lysis; lysis by TH cell lines specific for the peptide [4]: Significant dose dependent lysis
